tested on: Jurkat T cells; test: Pro-apoptotic activity on Jurkat T cells (FITC-Annexin V / 7-AAD flow cytometry); type: cell-based; settings: Homo sapiens, 72 hours, cells stained with FITC-Annexin V and 7-AAD among total cells, read-out: Jurkat T Cell Apoptosis (% in 5 μM)
Experimental: In order to investigate the effects of the prepared compounds, the apoptosis-inducing effects of the compounds on human T cell acute lymphoblastic leukemia cell line, Jurkat T cells, were evaluated in the following manner.
Jurkat T cells cultured in RPMI medium containing 10% fetal bovine serum (FBS) were collected and stained with trypan blue (Sigma). […] Then, the cells were centrifuged at 1200 rpm at room temperature for 5 minutes and re-suspended in 10% FBS-containing RPMI medium at a concentration of 1.5×10^5 cells/mL. 200 μL of the cell suspension was dispensed into each well of a flat bottom 96-well plate (Costar). Then, the cells were treated with 10 μL of the diluted compounds in RPMI medium at final concentrations of […] or 5 μM, and incubated in a 5% CO2 incubator at 37° C. for 72 hours. In a vehicle control group, the cells were treated with 10 μL of RPMI medium containing 1% of dimetylsulfoxide (DMSO, Sigma). The incubated cells were harvested, put into 5-mL FACS tubes (BD Falcon), washed with 1 mL of phosphate buffered saline (PBS), and then re-suspended in 0.1 mL of binding buffer (10 mM Hepes-NaOH, pH 7.4, 140 mM NaCl, […] CaCl2). The suspended cells were stained with fluorescein isothiocyanate (FITC)-Annexin V (BD Biosciences) and 7-amino-actinomycin D (7-AAD, e-Biosciences) at room temperature for 15 minutes. The stained cells were suspended in 0.3 mL of binding buffer and analyzed by a flow cytometer. Apoptosis was determined by the ratio (%) of cells stained with FITC-Annexin V and 7-AAD among the total cells (see Tables 10 and 11).

Point of comparison: `Cc1cc(C)c(OCC(=O)N/N=C/c2cccc3[nH]ccc23)c(C2CCOC2)c1` (stereo not shown) [Compound 320, (E)-N′-((1H-indol-4-yl)methylene)-2-(2,4-dimethyl-6-(tetrahydrofuran-3-yl)phenoxy)acetohydrazide], cytotoxicity at 5 µM 100%. Against it:
- O=C(COc1cccnc1-c1ccoc1)N/N=C/c1cccc2[nH]ccc12 [Compound 319, (E)-N′-((1H-indol-4-yl)methylene)-2-((2-(furan-3-yl)pyridin-3-yl)oxy)acetohydrazide] — the same, 100%
- Cc1cc(-c2ccoc2)cc(C)c1OCC(=O)N/N=C/c1ccc2cc[nH]c2c1 [Compound 322, (E)-N′-((1H-indol-6-yl)methylene)-2-(4-(furan-3-yl)-2,6-dimethylphenoxy)acetohydrazide] — the same, 100%
- Cc1cc(C2CCOC2)cc(C)c1OCC(=O)N/N=C/c1ccc2cc[nH]c2c1 (stereo not shown) [Compound 323, (E)-N′-((1H-indol-6-yl)methylene)-2-(2,6-dimethyl-4-(tetrahydrofuran-3-yl)phenoxy)acetohydrazide] — the same, 100%
- Cc1cccc(OCC(=O)N/N=C/c2cccc3[nH]ccc23)c1C [Compound 326, (E)-N′-((1H-indol-4-yl)methylene)-2-(2,3-dimethylphenoxy)acetohydrazide] — lower, 95%
- Cc1cccc(OCC(=O)N/N=C/c2ccc3cc[nH]c3c2)c1C [Compound 327] — lower, 95%
- CCc1nc(C)ccc1OCC(=O)N/N=C/c1cccc2[nH]ccc12 [Compound 329, (E)-N′-((1H-indol-4-yl)methylene)-2-((2-ethyl-6-methylpyridin-3-yl)oxy)acetohydrazide] — the same, 100%
- N#Cc1cc(Br)ccc1OCC(=O)N/N=C/c1cccc2[nH]ccc12 [Compound 330, (E)-N′-((1H-indol-4-yl)methylene)-2-(4-bromo-2-cyanophenoxy)acetohydrazide] — lower, 80%
- O=C(COc1cccnc1N1CCCC1)N/N=C/c1ccc2cc[nH]c2c1 [Compound 331, (E)-N′-((1H-indol-6-yl)methylene)-2-((2-(pyrrolidin-1-yl)pyridin-3-yl)oxy)acetohydrazide] — the same, 100%
- Cc1cc(C)c(OCC(=O)N/N=C/c2ccc3cc[nH]c3c2)c(C2CCCO2)c1 (stereo not shown) [Compound 332, (E)-N′-((1H-indol-6-yl)methylene)-2-(2,4-dimethyl-6-(tetrahydrofuran-2-yl)phenoxy)acetohydrazide] — the same, 100%
- Cc1cc(C)c(OCC(=O)N/N=C/c2cccc3[nH]ccc23)c(-c2ccoc2)c1 [Compound 333, (E)-N′-((1H-indol-4-yl)methylene)-2-(2-(furan-3-yl)-4,6-dimethylphenoxy)acetohydrazide] — the same, 100%
- Cc1cc(-c2ccoc2)cc(C)c1OCC(=O)N/N=C/c1cccc2[nH]ccc12 [Compound 336, (E)-N′-((1H-indol-4-yl)methylene)-2-(4-(furan-3-yl)-2,6-dimethylphenoxy)acetohydrazide] — the same, 100%
- Cc1cc(C2CCOC2)cc(C)c1OCC(=O)N/N=C/c1cccc2[nH]ccc12 (stereo not shown) [Compound 337, (E)-N′-((1H-indol-4-yl)methylene)-2-(2,6-dimethyl-4-(tetrahydrofuran-3-yl)phenoxy)acetohydrazide] — the same, 100%
- O=C(COc1cccnc1-c1ccsc1)N/N=C/c1ccc2cc[nH]c2c1 [Compound 343, (E)-N′-((1H-indol-6-yl)methylene)-2-((2-(thiophen-3-yl)pyridin-3-yl)oxy)acetohydrazide] — the same, 100%
- Cc1cc(C)c(OCC(=O)N/N=C/c2cccc3[nH]ccc23)c(-c2cccs2)c1 [Compound 344, (E)-N′-((1H-indol-4-yl)methylene)-2-(2,4-dimethyl-6-(thiophen-2-yl)phenoxy)acetohydrazide] — the same, 100%
- Cc1cc(C)c(OCC(=O)N/N=C/c2ccc3cc[nH]c3c2)c(-c2cccs2)c1 [Compound 345] — lower, 95%
- COc1ccc(OCC(=O)N/N=C/c2cccc3[nH]ccc23)c(-c2ccco2)c1 [Compound 346, (E)-N′-((1H-indol-4-yl)methylene)-2-(2-(furan-2-yl)-4-methoxyphenoxy)acetohydrazide] — the same, 100%
- COc1ccc(OCC(=O)N/N=C/c2ccc3cc[nH]c3c2)c(-c2ccco2)c1 [Compound 347] — the same, 100%
- O=C(COc1cccc(-c2ccco2)c1)N/N=C/c1cccc2[nH]ccc12 [Compound 356, (E)-N′-((1H-indol-4-yl)methylene)-2-(3-(furan-2-yl)phenoxy)acetohydrazide] — lower, 90%
- O=C(COc1cccc(-c2cccnc2)c1)N/N=C/c1cccc2[nH]ccc12 [Compound 358, (E)-N′-((1H-indol-4-yl)methylene)-2-(3-(pyridin-3-yl)phenoxy)acetohydrazide] — the same, 100%
- O=C(COc1cccc(-c2cccnc2)c1)N/N=C/c1ccc2cc[nH]c2c1 [Compound 359] — lower, 80%
- Cc1cc(C)c(OCC(=O)N(C)/N=C/c2ccc3ccn(C)c3c2)c(C2CCOC2)c1 (stereo not shown) [Compound 375, (E)-2-(2,4-dimethyl-6-(tetrahydrofuran-3-yl)phenoxy)-N-methyl-N′-((1-methyl-1H-indol-6-yl)methylene)acetohydrazide] — the same, 100%
- Cc1cc(F)cc(C2CCOC2)c1OCC(=O)N/N=C/c1ccc2cc[nH]c2c1 (stereo not shown) [Compound 378, (E)-N′-((1H-indol-6-yl)methylene)-2-(4-fluoro-2-methyl-6-(tetrahydrofuran-3-yl)phenoxy)acetohydrazide] — the same, 100%
- Cc1cc(F)cc(C2CCOC2)c1OCC(=O)N/N=C/c1cccc2[nH]ccc12 (stereo not shown) [Compound 379, (E)-N′-((1H-indol-4-yl)methylene)-2-(4-fluoro-2-methyl-6-(tetrahydrofuran-3-yl)phenoxy)acetohydrazide] — the same, 100%
- Cc1cc(F)cc(C2CCOC2)c1OCC(=O)N(C)/N=C/c1ccc2ccn(C)c2c1 (stereo not shown) [Compound 380, (E)-2-(4-fluoro-2-methyl-6-(tetrahydrofuran-3-yl)phenoxy)-N-methyl-N′-((1-methyl-1H-indol-6-yl)methylene)acetohydrazide] — the same, 100%

Reference: patent US9447083B2, “N-acylhydrazone derivatives for selective T cell inhibitor and anti-lymphoid malignancy drug” (CHONG KUN DANG PHARMACEUTICAL CORP., priority 2012, dated 2016)
